Test results from ChEMBL document CHEMBL4482312, “HTS Assay for Identifying Small Molecule Inhibitors of RAD52 and Uses of Identified Small Molecule Inhibitors for Treatment and Prevention of BRCA-Deficient Malignancies” (2018).
Activity calls are given as the source filed them. The rule behind the calls is not given here.

Experiments:
[1] = target: T1, DNA repair protein RAD52 homolog (Homo sapiens) (UniProt P43351); assay: Inhibition of RAD52 (unknown origin) assessed as reduction in RAD52-dsDNA interaction by FRET assay
T1 sequence (whole entry): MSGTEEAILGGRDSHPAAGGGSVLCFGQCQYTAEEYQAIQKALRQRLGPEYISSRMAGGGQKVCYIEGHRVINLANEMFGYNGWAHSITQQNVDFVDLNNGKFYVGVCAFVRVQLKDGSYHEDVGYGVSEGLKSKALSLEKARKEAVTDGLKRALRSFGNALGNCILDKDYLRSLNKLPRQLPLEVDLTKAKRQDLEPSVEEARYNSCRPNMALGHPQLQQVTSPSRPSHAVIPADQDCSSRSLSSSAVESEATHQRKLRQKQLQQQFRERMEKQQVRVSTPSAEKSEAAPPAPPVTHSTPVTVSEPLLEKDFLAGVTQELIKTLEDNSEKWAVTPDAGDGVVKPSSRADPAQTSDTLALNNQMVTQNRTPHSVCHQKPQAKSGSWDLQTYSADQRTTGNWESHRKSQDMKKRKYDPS

[2] = target: T1, DNA repair protein RAD52 homolog (Homo sapiens); assay: Binding affinity to RAD52 (unknown origin) by water-logsy NMR method
Homo sapiens [3] = species: Homo sapiens; assay: Binding affinity to RPA (unknown origin) assessed as effect on RPA-ssDNA interaction by water-logsy NMR method
Homo sapiens [4] = species: Homo sapiens; assay: Binding affinity to RPA (unknown origin) by water-logsy NMR method
[5] = target: T2, DNA repair protein RAD52 homolog (Homo sapiens, UniProt P43351); assay: Inhibition of RAD52 (unknown origin) assessed as reduction in RAD52-ssDNA interaction using Cy3-dT30-Cy5 ssDNA by FRET assay
T2 sequence (P43351 whole entry): T1 sequence (whole entry)

[6] = Solubility in 30 mM Tris-acetate buffer pH 7.5 in presence of 1 mM DTT at 115 uM; assay type: physicochemical; settings: pH 7.5, 115 µM
[7] = target: T2, DNA repair protein RAD52 homolog; assay: Inhibition of RAD52 (unknown origin) assessed as effect on RAD52-mediated annealing of complementary oligonucleotides using T-28 ssDNA substrate by FRET assay
[8] = Solubility in 30 mM Tris-acetate buffer pH 7.5 in presence of 1 mM DTT at 10 uM; assay type: physicochemical; settings: pH 7.5, 10 µM
[9] = target: T1, DNA repair protein RAD52 homolog (Homo sapiens); assay: Inhibition of RAD52 in hTERT-immortalized wild-type human GM01604 fibroblasts with BRCA2 knockdown assessed as potentiation of HU and UCN01-induced cell death by Live/Dead assay
[10] = target: T1, DNA repair protein RAD52 homolog (Homo sapiens); assay: Effect on oligomeric ring of RAD52 (unknown origin) by dynamic light scattering assay
[11] = target: T1, DNA repair protein RAD52 homolog (Homo sapiens); assay: Induction of protein aggregation of RAD52 (unknown origin) by dynamic light scattering assay
[12] = target: T1, DNA repair protein RAD52 homolog (Homo sapiens); assay: Inhibition of RAD52 (unknown origin) assessed as reduction in RAD52-ssDNA interaction using Cy3-dT30-Cy5 ssDNA in presence of 0.01% Triton-X100 by FRET assay
[13] = target: T1, DNA repair protein RAD52 homolog (Homo sapiens); assay: Binding affinity to RAD52 (unknown origin) at 20 uM by water-logsy NMR method
Homo sapiens [14] = species: Homo sapiens; assay: Binding affinity to RPA (unknown origin) at 20 uM by water-logsy NMR method
Homo sapiens [15] = species: Homo sapiens; assay: Binding affinity to RPA (unknown origin) assessed as effect on RPA-ssDNA interaction at 20 uM by water-logsy NMR method
Homo sapiens [16] = species: Homo sapiens; assay: Inhibition of RAD52 (unknown origin) interaction with RPA (unknown origin)
[17] = target: T1, DNA repair protein RAD52 homolog (Homo sapiens); assay: Inhibition of RAD52 in checkpoint deficient HU-treated in hTERT-immortalized wild-type human GM01604 fibroblasts assessed as decrease in MUS81/EME1/RAD52-dependent DSB formation by measuring mean tail moment in presence of […] by neutral comet assay
[18] = target: T1, DNA repair protein RAD52 homolog (Homo sapiens); assay: Inhibition of RAD52 in checkpoint deficient HU-treated in hTERT-immortalized wild-type human GM01604 fibroblasts assessed as inhibiting RAD52-MUS81-dependent DSBs at stalled replication forks in presence of […] by neutral comet assay
[19] = target: T1, DNA repair protein RAD52 homolog (Homo sapiens); assay: Inhibition of RAD52 in checkpoint deficient HU-treated in hTERT-immortalized wild-type human GM01604 fibroblasts assessed as decrease in MUS81/EME1/RAD52-dependent DSB formation by measuring mean tail moment at 500 nM in presence of […] by neutral comet assay
[20] = target: T1, DNA repair protein RAD52 homolog (Homo sapiens); assay: Inhibition of RAD52 in checkpoint deficient in hTERT-immortalized wild-type human GM01604 fibroblasts assessed as decrease in MUS81/EME1/RAD52-dependent DSB formation by measuring mean tail moment in presence of […] in presence of RAD52 siRNA by neutral comet assay
Homo sapiens [21] = species: Homo sapiens; assay: Induction of anaphase bridge accumulation in checkpoint deficient HU-treated in hTERT-immortalized wild-type human GM01604 cells assessed as decrease in MUS81/EME1/RAD52-dependent DSB formation by measuring mean tail moment in presence of […] by neutral comet assay; assay type: functional
[22] = target: T1, DNA repair protein RAD52 homolog (Homo sapiens); assay: Inhibition of RAD52 in hTERT-immortalized wild-type human GM01604 fibroblasts with MUS81 knockdown assessed as potentiation of HU and UCN01-induced cell death by Live/Dead assay
[23] = target: T1, DNA repair protein RAD52 homolog (Homo sapiens); assay: Inhibition of RAD52 in hTERT-immortalized wild-type human GM01604 fibroblasts in presence of BRCA2 siRNA NA RAD52 siRNA assessed as potentiation of HU-induced cell death by Live/Dead assay relative to control
[24] = target: T1, DNA repair protein RAD52 homolog (Homo sapiens); assay: Inhibition of RAD52 in hTERT-immortalized wild-type human GM01604 fibroblasts assessed as cell death at 1 uM relative to control; design: scale not given: the % may be the effect or the level left
[25] = Solubility in DMSO at 25 mM; assay type: physicochemical; settings: 25000 µM
Homo sapiens [26] = species: Homo sapiens; assay: Binding affinity to RPA (unknown origin) at 40 uM by water-logsy NMR method
Homo sapiens [27] = species: Homo sapiens; assay: Binding affinity to RPA (unknown origin) assessed as effect on RPA-ssDNA interaction at 40 uM by water-logsy NMR method

## O=C(O[C@@H]1O[C@@H]2COC(=O)c3cc(O)c(O)c(O)c3-c3c(cc(O)c(O)c3O)C(=O)O[C@H]([C@H]1O)[C@@H]2O)c1cc(O)c(O)c(O)c1
[1]
  inhibition: inactive
[2]
  Activity: Active
Homo sapiens [3]
  Activity: inactive
Homo sapiens [4]
  Activity: Active

## O=c1c2ccccc2nc(CSc2[nH]cnc3ncnc2-3)n1-c1cccc(C(F)(F)F)c1
[5]
  IC50: Nd(Insoluble)
[6]
  solubility: Insoluble

## CN(C)[C@@H]1C(O)=C(C(=O)NCN2CCCC2)C(=O)[C@@]2(O)C(O)=C3C(=O)c4c(O)cccc4[C@@](C)(O)[C@H]3C[C@@H]12 [ROLITETRACYCLINE]
[7]
  IC50: Not Active

## NCCc1cc(O)c(O)cc1O [OXIDOPAMINE]
[7]
  IC50: Not Active

## Oc1cc(O)c2c(c1)O[C@H](c1ccc(O)c(O)c1)[C@H](O)C2 [(-)-EPICATECHIN]
[7]
  IC50: Not Active

## COc1cc(N)c(Cl)cc1C(=O)N[C@H]1CCN(CCCOc2ccc(F)cc2)C[C@H]1OC.O
[7]
  IC50: Not Active

## CCOc1cc(C(Nc2cc(C)ccn2)c2ccc3ccc(C)nc3c2O)ccc1OC (stereo not drawn)
[5]
  IC50: Nd(Insoluble)
[8]
  solubility: Insoluble

## CC(C)(O)C1Cc2cc3ccc(=O)oc3cc2O1 (stereo not drawn)
[5]
  IC50: Not Active

## Oc1cc(O)c2c(c1)O[C@H](c1cc(O)c(O)c(O)c1)[C@H](O)C2
[9]
  inhibition: Active
[10]
  Activity: inactive
[11]
  Activity: inactive
[12]
  inhibition: Active
[13]
  Activity: Active
Homo sapiens [14]
  Activity: inactive
Homo sapiens [15]
  Activity: inactive
Homo sapiens [16]
  inhibition: inactive
[17]
  inhibition: Dose-dependent effect
[18]
  inhibition: Active
[19]
  inhibition: Active
[20]
  inhibition: Active
Homo sapiens [21]
  Activity: inactive
[22]
  inhibition: Active
[23]
  inhibition: Active
[24]
  Activity: 40%

## CC1(C)C(=O)C=C[C@@]2(C)C1=C(O)C(=O)[C@]1(C)[C@@H]2CC[C@@]2(C)[C@H](c3ccoc3)C[C@H]3O[C@]321 [CEDRELONE]
[7]
  IC50: Not Active

## CCOc1ccccc1NC(=O)c1c(NC(=O)Cc2ccc(OC)cc2)sc2c1CCC2
[5]
  IC50: Nd(Insoluble)
[25]
  solubility: Insoluble

## O=C(O[C@@H]1Cc2c(O)cc(O)cc2O[C@@H]1c1cc(O)c(O)c(O)c1)c1cc(O)c(O)c(O)c1
[10]
  Activity: inactive
[11]
  Activity: inactive
[12]
  inhibition: Active
Homo sapiens [26]
  Activity: Active
Homo sapiens [27]
  Activity: inactive
Homo sapiens [16]
  inhibition: inactive
[17]
  inhibition: Dose-dependent effect
[18]
  inhibition: Active
[19]
  inhibition: Active
[20]
  inhibition: Active
Homo sapiens [21]
  Activity: inactive
